According to patent US20040115739A1, “Method for identifying maxi-k channel blockers for use in lowering elevated intraocular pressure using hek-293 cells” (priority 2003, published 2004):

What was measured:
Assay type in all cases: cell-based
[1] = target: T1, maxi-K channels transiently expressed in TsA-201 cells (Homo sapiens, UniProt Q12791); test: VIPR/FRET membrane potential assay, maxi-K channels transiently expressed in TsA-201 cells; settings: FIG. 2
T1 construct: expressed in transfected cells; host or cells: TsA-201 cells, transient transfection
T1 sequence (Q12791 whole entry): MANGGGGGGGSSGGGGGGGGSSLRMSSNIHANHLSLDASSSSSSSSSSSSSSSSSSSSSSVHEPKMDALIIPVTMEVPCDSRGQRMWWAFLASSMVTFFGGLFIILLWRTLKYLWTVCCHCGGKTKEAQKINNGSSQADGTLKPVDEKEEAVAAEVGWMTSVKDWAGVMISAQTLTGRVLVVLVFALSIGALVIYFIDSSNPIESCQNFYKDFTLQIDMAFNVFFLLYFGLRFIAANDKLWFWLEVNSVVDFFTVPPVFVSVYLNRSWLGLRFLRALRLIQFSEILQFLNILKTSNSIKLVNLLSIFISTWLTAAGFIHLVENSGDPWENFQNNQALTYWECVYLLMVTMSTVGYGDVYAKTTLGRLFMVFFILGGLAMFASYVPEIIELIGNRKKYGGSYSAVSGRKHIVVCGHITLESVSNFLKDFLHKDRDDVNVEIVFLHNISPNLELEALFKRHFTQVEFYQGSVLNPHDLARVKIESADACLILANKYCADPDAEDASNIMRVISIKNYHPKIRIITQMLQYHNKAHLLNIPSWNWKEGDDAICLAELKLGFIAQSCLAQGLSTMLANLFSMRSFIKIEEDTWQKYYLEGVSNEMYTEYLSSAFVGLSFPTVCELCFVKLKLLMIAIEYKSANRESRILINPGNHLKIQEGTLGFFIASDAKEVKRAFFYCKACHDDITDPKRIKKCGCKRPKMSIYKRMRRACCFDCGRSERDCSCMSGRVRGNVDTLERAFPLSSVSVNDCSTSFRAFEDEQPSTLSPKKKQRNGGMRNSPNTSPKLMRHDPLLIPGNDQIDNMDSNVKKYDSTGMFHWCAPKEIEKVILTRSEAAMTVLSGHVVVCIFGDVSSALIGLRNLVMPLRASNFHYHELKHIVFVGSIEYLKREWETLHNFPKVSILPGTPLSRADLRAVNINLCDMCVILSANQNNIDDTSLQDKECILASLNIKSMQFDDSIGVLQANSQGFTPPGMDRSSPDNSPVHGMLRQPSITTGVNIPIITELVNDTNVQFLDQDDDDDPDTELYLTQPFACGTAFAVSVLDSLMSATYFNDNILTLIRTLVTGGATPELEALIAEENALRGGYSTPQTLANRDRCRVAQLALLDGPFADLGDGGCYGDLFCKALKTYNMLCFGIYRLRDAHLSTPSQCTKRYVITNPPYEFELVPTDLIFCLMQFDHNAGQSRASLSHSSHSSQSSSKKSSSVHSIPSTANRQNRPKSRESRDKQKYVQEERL
T1 sequence (Q16558 whole entry partner): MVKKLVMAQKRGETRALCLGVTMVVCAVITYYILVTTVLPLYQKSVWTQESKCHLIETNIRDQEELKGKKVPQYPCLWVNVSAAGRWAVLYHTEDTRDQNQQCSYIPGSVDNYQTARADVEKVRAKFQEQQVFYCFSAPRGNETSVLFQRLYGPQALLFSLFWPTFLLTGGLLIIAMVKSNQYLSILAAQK
From the text: In order to discover novel maxi-K channel blockers, a robust and reliable functional assay is required. High throughput screening assays with ion channels have been developed (see Aurora Biosciences J. E. Gonzalez et al., DDT, 4, 431-439, 1999). For example, transient transfection of maxi-K channel alpha and beta1 subunits into TsA-201 cells leads to the maxi-K channel controlling the membrane potential of those cells, under appropriate experimental conditions. However, transient transfection experiments are limited because, typically, the transfection has to occur for every experiment, the cells are only available for assay twice a week and results can be variable depending on the transfection efficiency. This invention relates to a new functional assay, which utilizes HEK-293 cells, which once transfected remains as such, thereby eliminating the need for further transfection. The claimed method also provides more reliable reading of the maxi-K channel activity.

[2] = test system: endogenous potassium conductances of HEK-293 cells; test: VIPR/FRET membrane potential assay, high-potassium addition to HEK-293 cells; settings: FIG. 1; for effect on fluorescence signal caused by high-potassium addition: untransfected HEK-293 cells, different/increasing concentrations of compound; for efficacy (inhibition of fluorescence signal) in the presence of Compound 1: HEK-293 cells, selective maxi-K channel blocker Compound 1 present
Protocol: HEK-293 cells were plated on 96-well poly-D-lysine plates and incubated for about 16 to 24 hours at 37° C. The media was aspirated and the cells were washed once with D-PBS. Cells were incubated with 9 μM coumarin (CC2DMPE)-0.02% pluronic-127 in D-PBS for 30 minutes in the dark. Cells were washed twice with D-PBS, and incubated with 4.5 μM oxanol (DiSBAC2(3)) in the absence (Control) or presence of increasing concentrations of test compound, in the dark for 30 minutes. Plates were loaded onto a VIPR instrument and the fluorescence emission of both dyes was recorded for 10 seconds. A solution containing high-potassium was then added and the fluorescence emission of the dyes was recorded for another 10 seconds. The coumarin/oxanol ratio was calculated under both conditions. Before addition of high-potassium, this ratio was always normalized to 1.
The signal is not affected by the presence of different concentrations of the selective maxi-K channel blocker, Compound 1. […] A useful concentration range for these agents is 3-10 μM. Importantly, in the presence of the selective maxi-K channel blocker Compound 1, the efficacy of either Compound A or Compound B is unaffected.

[3] = target: T2, maxi-K channel (alpha and beta 1 subunits) in stably transfected HEK-293 cells (Homo sapiens, UniProt Q12791); test: VIPR/FRET membrane potential assay, HEK-293 cells stably transfected with alpha and beta 1 subunits of the maxi-K channel
T2 construct: expressed in transfected cells
T2 sequence (Q12791 whole entry): as the sequence (Q12791 whole entry) above
T2 sequence (Q16558 whole entry partner): as the sequence (Q16558 whole entry partner) above
Protocol: Transfection of the alpha and betal subunits of the maxi-K channel in HEK-293 cells was carried out as follows: HEK-293 cells were plated in 100 mm tissue culture treated dishes at a density of 3×10^6 cells per dish, and a total of five dishes were prepared. Cells were grown in a medium consisting of Dulbecco's Modified Eagle Medium (DMEM) supplemented with 10% Fetal Bovine serum, 1× L-Glutamine, and 1× Penicillin/Streptomycin, at 37° C., 10% CO2. For transfection with Maxi-K hα (pCIneo) and Maxi-K hβ1 (pIRESpuro) DNAs, 150 μl FuGENE6™ was added dropwise into 10 ml of serum free/phenol-red free DMEM and allowed to incubate at room temperature for 5 minutes. Then, the FuGENE6™ solution was added dropwise to a DNA solution containing 25 μg of each plasmid DNA, and incubated at room temperature for 30 minutes. After the incubation period, 2 ml of the FuGENE6™/DNA solution was added dropwise to each plate of cells and the cells were allowed to grow two days under the same conditions as described above. At the end of the second day, cells were put under selection media which consisted of DMEM supplemented with both 600 μg/ml G418 and 0.75 μg/ml puromycin. Cells were grown until separate colonies were formed. Five colonies were collected and transferred to a 6 well tissue culture treated dish. A total of 75 colonies were collected. Cells were allowed to grow until a confluent monolayer was obtained. Cells were then tested for the presence of maxi-K channel alpha and beta1 subunits using an assay that monitors binding of ^125I-iberiotoxin-D19Y/Y36F to the channel. Cells expressing ^125I-iberiotoxin-D19Y/Y36F binding activity were then evaluated in a functional assay that monitors the capability of maxi-K channels to control the membrane potential of transfected HEK-293 cells using fluorescence resonance energy transfer (FRET) ABS technology with a VIPR instrument. The colony giving the largest signal to noise ratio was subjected to limiting dilution. For this, cells were resuspended at approximately 5 cells/ml, and 200 μl were plated in individual wells in a 96 well tissue culture treated plate, to add ca. one cell per well. A total of two 96 well plates were made. When a confluent monolayer was formed, the cells were transferred to 6 well tissue culture treated plates. A total of 62 wells were transferred. When a confluent monolayer was obtained, cells were tested using the FRET-functional assay. […]
The plates are loaded into a voltage/ion probe reader (VIPR) instrument, and the fluorescence emission of both CC2DMPE and DiSBAC2(3) are recorded for 10 sec. At this point, 100 μl of high-potassium solution (mM): 140 KCl, 2 CaCl2, 1 MgCl2, 20 Hepes-KOH, pH 7.4, 10 glucose are added and the fluorescence emission of both dyes recorded for an additional 10 sec. […]

Structure (SMILES) | inhibition of control signal ([1]; 3 μM compound) | effect on fluorescence signal caused by high-potassium addition [2] | inhibition of control signal with increasing concentrations ([3]; 3 μM Compound A present in all wells, FIG. 4) | block of signal generated by addition of high-potassium solution ([3]; compound alone, no blocker of endogenous conductances, FIG. 3) | inhibition of signal generated by addition of high-potassium solution ([3]; in the presence of potassium channel blocker Compound A, FIG. 3) | effect on maxi-K channel activity [1] | efficacy (inhibition of fluorescence signal) in the presence of Compound 1 [2] | effect on the magnitude of the signal caused by addition of high-potassium solution ([3]; stably transfected HEK-293 cells, FIG. 3)
CC(=O)SCC(Cc1ccccc1)C(=O)NC(Cc1ccccc1)C(=O)NCCc1ccccc1 (stereo not drawn) [Compound 1] | completely inhibits the control signal | not affected | concentration-dependent inhibition of the control signal | only partially blocks the signal | complete inhibition of the signal | – | – | –
CCCNC(=O)OC1CCC(CNC(=O)c2ccccc2OC)(c2ccccc2)CC1 (stereo not drawn) [Compound A] | – | concentration-dependent inhibition of the fluorescence signal | – | – | – | neither Compound A, nor Compound B have any effect on maxi-K channel activity | unaffected | no significant effect
COc1ccccc1C(=O)NCC1(c2ccccc2)CCC(=O)CC1 [Compound B] | – | concentration-dependent inhibition of the fluorescence signal | – | – | – | neither Compound A, nor Compound B have any effect on maxi-K channel activity | unaffected | –
